{"source": "patent US20050064050A1", "about": "(priority 1999, published 2005)", "key": {"mouse": {"system": "mouse", "conditions": "in vivo, po"}, "[1]": {"target": "botulinum neurotoxin (BoNT/A) (Clostridium botulinum, UniProt P0DPI0)", "sequence (P0DPI0 whole entry, looked up)": "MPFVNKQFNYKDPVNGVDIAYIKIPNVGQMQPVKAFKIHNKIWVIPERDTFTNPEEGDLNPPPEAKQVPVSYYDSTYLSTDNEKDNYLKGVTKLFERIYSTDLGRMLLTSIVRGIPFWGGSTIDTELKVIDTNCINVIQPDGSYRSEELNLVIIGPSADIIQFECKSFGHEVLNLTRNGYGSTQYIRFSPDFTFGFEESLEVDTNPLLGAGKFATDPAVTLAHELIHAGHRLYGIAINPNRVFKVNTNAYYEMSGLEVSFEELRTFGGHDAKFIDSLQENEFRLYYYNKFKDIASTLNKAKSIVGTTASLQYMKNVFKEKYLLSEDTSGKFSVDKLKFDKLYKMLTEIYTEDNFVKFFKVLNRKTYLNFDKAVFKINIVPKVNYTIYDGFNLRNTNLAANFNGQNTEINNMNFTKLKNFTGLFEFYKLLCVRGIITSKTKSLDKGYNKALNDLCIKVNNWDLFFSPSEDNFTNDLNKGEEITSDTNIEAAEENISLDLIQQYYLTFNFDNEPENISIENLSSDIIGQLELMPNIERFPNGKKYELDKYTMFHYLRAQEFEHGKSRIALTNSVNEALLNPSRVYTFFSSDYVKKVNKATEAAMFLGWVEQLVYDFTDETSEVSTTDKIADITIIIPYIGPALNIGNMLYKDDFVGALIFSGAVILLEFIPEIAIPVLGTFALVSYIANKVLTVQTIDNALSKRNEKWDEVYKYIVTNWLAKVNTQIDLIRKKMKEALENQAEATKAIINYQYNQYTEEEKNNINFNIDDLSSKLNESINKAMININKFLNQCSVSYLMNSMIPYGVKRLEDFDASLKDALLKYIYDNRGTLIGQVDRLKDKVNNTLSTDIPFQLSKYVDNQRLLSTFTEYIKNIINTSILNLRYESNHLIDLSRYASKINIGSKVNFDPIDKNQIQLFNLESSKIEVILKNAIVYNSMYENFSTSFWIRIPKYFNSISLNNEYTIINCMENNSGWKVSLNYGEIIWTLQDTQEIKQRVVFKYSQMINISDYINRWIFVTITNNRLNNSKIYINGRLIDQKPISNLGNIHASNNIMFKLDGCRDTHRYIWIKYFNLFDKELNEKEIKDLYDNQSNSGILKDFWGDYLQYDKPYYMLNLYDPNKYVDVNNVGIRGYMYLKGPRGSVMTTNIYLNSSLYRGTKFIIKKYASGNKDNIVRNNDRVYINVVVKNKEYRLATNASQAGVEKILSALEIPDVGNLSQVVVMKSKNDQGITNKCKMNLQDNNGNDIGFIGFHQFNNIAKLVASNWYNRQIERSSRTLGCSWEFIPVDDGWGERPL", "parameters": "key to BoNT neutralization effects of tea-leaf extract ingredients: Effect: +: Effective in neutralization; −: Ineffective in neutralization"}}}
{"compound": "thearubigin", "values": [{"measurement": "toxicity (in words)", "setting": "mouse", "result": "no toxicity"}]}
{"compound": "O=C(OC[C@H]1O[C@@H](OC(=O)c2cc(O)c(O)c(OC(=O)c3cc(O)c(O)c(O)c3)c2)[C@H](OC(=O)c2cc(O)c(O)c(OC(=O)c3cc(O)c(O)c(O)c3)c2)[C@@H](OC(=O)c2cc(O)c(O)c(OC(=O)c3cc(O)c(O)c(O)c3)c2)[C@@H]1OC(=O)c1cc(O)c(O)c(OC(=O)c2cc(O)c(O)c(O)c2)c1)c1cc(O)c(O)c(OC(=O)c2cc(O)c(O)c(O)c2)c1", "note": "[Tannic Acid, tannic acid]", "values": [{"measurement": "BoNT neutralization effects of tea-leaf extract ingredients: Effect", "setting": "[1]", "result": "−"}, {"measurement": "BoNT neutralizing effect (in words)", "setting": "[1]", "result": "showed no neutralizing effect"}]}
{"compound": "catechin", "values": [{"measurement": "BoNT neutralization effects of tea-leaf extract ingredients: Effect", "setting": "[1]", "result": "−"}, {"measurement": "BoNT neutralizing effect (in words)", "setting": "[1]", "result": "showed no neutralizing effect"}]}
{"compound": "O=c1c(O)cc([C@H]2Oc3cc(O)cc(O)c3C[C@H]2O)cc2c([C@H]3Oc4cc(O)cc(O)c4C[C@H]3O)cc(O)c(O)c12", "note": "[Theaflavin, theaflavin]", "values": [{"measurement": "BoNT neutralization effects of tea-leaf extract ingredients: Effect", "setting": "[1]", "result": "−"}, {"measurement": "BoNT neutralizing effect (in words)", "setting": "[1]", "result": "showed no neutralizing effect"}]}
